Experimental data published in publication PMC8474119, “Discovery and SAR Evolution of Pyrazole Azabicyclo[3.2.1]octane Sulfonamides as a Novel Class of Non-Covalent N-Acylethanolamine-Hydrolyzing Acid Amidase (NAAA) Inhibitors for Oral Administration” (Journal of Medicinal Chemistry, 2021).

Tests used:
[1] = Aqueous kinetic solubility assay; assay type: physicochemical; details: PBS buffer, pH 7.4, n = 3
Procedure: The aqueous kinetic solubility was determined from a 10 mM DMSO stock solution of test compound (39 or 50) in PBS buffer at pH 7.4. The study was performed by incubating an aliquot of 10 mM DMSO stock solution in PBS (pH 7.4) to a target concentration of 250 μM (2.5% DMSO). The incubation was carried out under shaking at 25 °C for 24 h, followed by centrifugation at 21,100g for 30 min. The supernatant was further diluted (4:1) with CH3CN, and the dissolved test compound was quantified by UV at 215 nm on a Waters ACQUITY UPLC-MS system consisting of a single quadrupole detector (SQD) mass spectrometer equipped with an electrospray ionization interface and a photodiode array detector (PDA) from Waters Inc. (Milford, MA, USA). Electrospray ionization in positive mode was used in the mass scan range 100–500 Da. The PDA range was 210–400 nm. The analyses were run on an ACQUITY UPLC BEH C18 column (50 × 2.1 mm ID, particle size 1.7 μm) with a VanGuard BEH C18 precolumn (5 × 2.1 mm ID, particle size 1.7 μm), using 10 mM NH4OAc in H2O at pH 5 adjusted with AcOH (A) and 10 mM NH4OAc in CN–H2O (95:5) at pH 5 (B) as the mobile phase.

[2] = Mouse pharmacokinetics, i.v. and p.o.; assay type: in vivo; details: plasma, male C57BL/6 mice; for AUC at 4 h / Cmax at 4 h / Tmax at 4 h / Vd at 4 h / clearance at 4 h / bioavailability at 4 h: iv; for AUC at 4 h / Cmax at 4 h / Tmax at 4 h / Vd at 4 h / clearance at 4 h: i.v. 3 mg/kg; for AUC at 8 h / Cmax at 8 h / Tmax at 8 h: po, p.o. 10 mg/kg
Procedure: Male C57BL/6 mice, weighing 22–24 g, were used (Charles River). All procedures were performed in accordance with the Ethical Guidelines of European Communities Council (Directive 2010/63/EU of 22 September 2010) and accepted by the Italian Ministry of Health. All efforts were made to minimize animal suffering and to use the minimal number of animals required to produce reliable results, according to the “3Rs concept”. Animals were group-housed in ventilated cages and had free access to food and water. They were maintained under a 12 h light/dark cycle (lights on at 8:00 am) at controlled temperature (21 ± 1 °C) and relative humidity (55 ± 10%).
Compound 39 or 50 was administered p.o. and i.v. to C57BL/6 male mice at 10 and 3 mg/kg. The vehicle used was PEG400/Tween 80/saline solution at 10/10/80% in volume, respectively. Three animals per each time point were treated. Blood samples at 0, 15, 30, 60, 120, 240, and 480 min after administration were collected for the p.o. arm. Blood samples at 0, 5, 15, 30, 60, 120, and 240 min after administration were collected for the i.v. arm. Plasma was separated from blood by centrifugation for 15 min at 1500 rpm a 4 °C, transferred to Eppendorf tubes, and frozen (−80 °C). Control animals treated with vehicle only were also included in the experimental protocol.
Plasma samples were centrifuged at 21,100g for 15 min at 4 °C. An aliquot of each sample was extracted (1:3) with cold CH3CN containing 200 nM of an appropriate internal standard as a close analogue of the parent compound (for compound 39: (1R,3r,5S)-3-(4-phenylphenoxy)-8-((3,5-dimethyl-1H-pyrazol-4-yl)sulfonyl)-8 azabicyclo[3.2.1]octane; for compound 50: (1R,3r,5S)-3-((5-methylpyrazin-2-yl)oxy)-8-((3,5-dimethyl-1H-pyrazol-4-yl)sulfonyl)-8-azabicyclo[3.2.1]octane). A calibration curve was obtained in blank mouse plasma over a 1 nM to 10 μM range. Three quality controls were prepared by spiking the parent compound in blank mouse plasma to 20, 200, and 2.000 nM, as final concentrations. The calibrators and quality controls were extracted (1:3) with the same extraction solution as the plasma sample. The plasma samples, the calibrators, and quality controls were centrifuged at 3.270g for 15 min at 4 °C. The supernatants were further diluted (1:1) with H2O + 0.1% HCOOH, and analyzed by LC–MS/MS on a Waters ACQUITY UPLC-MS TQD system consisting of a Triple Quadrupole Detector (TQD) Mass Spectrometer equipped with an Electrospray Ionization interface and a Photodiode Array eλ Detector from Waters Inc. (Milford, MA, USA). Electrospray ionization was applied in positive mode. Compound-dependent parameters such as MRM transitions and collision energy were developed for the parent compound and the internal standard. The analyses were run on an ACQUITY UPLC BEH C18 (50 × 2.1 mm ID, particle size 1.7 μm) with a VanGuard BEH C18 precolumn (5 × 2.1 mm ID, particle size 1.7 μm) at 40 °C. The mobile phase was H2O + 0.1% HCOOH (A) and CH3CN + 0.1% HCOOH (B) at a flow rate = 0.5 mL/min. A linear gradient was applied starting at 10% B with an initial hold for 0.2 min, then 10–100% B in 2 min. All samples (plasma samples, calibrators, and quality controls) were quantified by the MRM peak area response factor in order to determine the levels of the parent compound in plasma. The concentrations versus time were plotted and the profiles were fitted using PK Solutions Excel Application (Summit Research Service, USA) in order to determine the pharmacokinetic parameters.

[3] = p.o. 10 mg/kg vs i.v. 3 mg/kg, read-out: F (oral bioavailability)

CCCCc1ccc(O[C@H]2C[C@H]3CC[C@@H](C2)N3S(=O)(=O)c2c(C)n[nH]c2C)cc1 [Compound 39, (1R,3r,5S)-3-(4-Butylphenoxy)-8-((3,5-dimethyl-1H-pyrazol-4-yl)sulfonyl)-8-azabicyclo[3.2.1]octane]
solubility kinetic at 24 h [1]: < 1 µM
AUC at 4 h [2]: 347 ng·h/mL
Cmax at 4 h [2]: 702 ng/mL
Tmax at 4 h [2]: 5 min
Vd at 4 h [2]: 4.45 L/kg
clearance at 4 h [2]: 144 mL/min/kg
bioavailability at 4 h [2, 3]: 30%
AUC at 8 h [2]: 346 ng·h/mL
Cmax at 8 h [2]: 297 ng/mL
Tmax at 8 h [2]: 30 min

CCOCc1cnc(O[C@H]2C[C@H]3CC[C@@H](C2)N3S(=O)(=O)c2c(C)n[nH]c2C)cn1 [Compound 50, (1R,3r,5S)-8-((3,5-Dimethyl-1H-pyrazol-4-yl)sulfonyl)-3-((5-(ethoxymethyl)pyrazin-2-yl)oxy)-8-azabicyclo[3.2.1]octane]
solubility kinetic at 24 h [1]: > 250 µM
AUC at 4 h [2]: 3370 ng·h/mL
Cmax at 4 h [2]: 5240 ng/mL
Tmax at 4 h [2]: 5 min
Vd at 4 h [2]: 0.53 L/kg
clearance at 4 h [2]: 13 mL/min/kg
bioavailability at 4 h [2, 3]: 60%
bioavailability ([2]; oral, p.o. 10 mg/kg vs i.v. 3 mg/kg, read-out: F (oral bioavailability)): ~60%
AUC at 8 h [2]: 6790 ng·h/mL
Cmax at 8 h [2]: 6870 ng/mL
Tmax at 8 h [2]: 15 min
